Structures can show the parent of a compound that is named as a salt.
Columns and labels:
opioid receptors = details: cited from earlier work
[1] = in comparison to a 15 mg dose of hydrocodone
[2] = cited from earlier work

Compound	Equianalgesic Calculated Dose [1] [mg]	further results
C[C@H]1[C@H]2Cc3ccc(O)cc3[C@]1(C)CCN2CC1CC1 [cyclazocine]		duration of action after oral administration (opioid receptors; in vivo, po): ~24 h
meperidine	135.0	
O=C1CC[C@@]2(O)[C@H]3Cc4ccc(O)c5c4[C@@]2(CCN3CC2CC2)[C@H]1O5 [hydrochloride salt of naltrexone, naltrexone hydrochloride]		solubility in water [2]: about 100 mg/cc
COc1ccc2c3c1O[C@H]1[C@@H](O)C=C[C@H]4[C@@H](C2)N(C)CC[C@@]341 [Codeine, codeine]	90.0	
CN1CC[C@]23CCCC[C@H]2[C@H]1Cc1ccc(O)cc13 [Levorphanol, levorphanol]	1.8	
COc1ccc2c3c1OC1C(=O)CC[C@H]4[C@@H](C2)N(C)CC[C@]314 (stereo partly drawn) [Hydrocodone, 4,5-epoxy-3-methoxy-17-methylmorphinan-6-one]	15.0	
COc1ccc2c3c1OC1C(=O)CC[C@@]4(O)[C@@H](C2)N(C)CC[C@]314 (stereo partly drawn) [Oxycodone, 4,5-epoxy-14-hydroxy-3-methoxy-17-methylmorphinan-6-one]	13.5	
CCC(=O)C(CC(C)N(C)C)(c1ccccc1)c1ccccc1 (stereo not drawn) [Methadone, methadone]	9.0	
O=C1CC[C@@]2(O)[C@H]3Cc4ccc(O)c5c4[C@@]2(CCN3CC2CC2)[C@H]1O5 [naltrexone]		blockade of morphine effects (opioid receptors; normal volunteers, three 100-mg doses, MS Contin): blocked

From US20140037721A1, “Pharmaceutical Composition” (Alpharma pharmaceuticals LLC, priority 2007, published 2014)
